Where two headings read alike, the source gives them in different places. Where a SMILES comes first, the peptide text is derived from it. Bridges are numbered along the chain shown (N, C = ends). [ ]: non-standard residue; d: D form. hArg = N=C(N)NCCCC[C@H](N)C(=O)O; Mpa = O=C(O)CCS
How the values were obtained:
[1] = tested on: platelets (arachidonic acid-induced aggregation); conditions: Gum et al. study; ADP and 1.6 mM arachidonic acid; cited from earlier work
[2] = tested on: platelets (arachidonic acid-induced aggregation); assay: Aspirin resistance by arachidonic acid-induced aggregation, LTA (Example 1); type: in vivo; conditions: 1.0 mM arachidonic acid; 1/70 patients; aspirin 81-325 mg qd
Excerpt: J Am Coll Cardiol 1998 89:783).

[3] = tested on: activated GP IIb/IIIa receptors; assay: Whole blood flow cytometry, stimulated active GP IIb/IIIa expression (Example 2); type: in vivo, patients; conditions: 18-24 hours post-stenting, 5 μM ADP stimulated
Description: (recognizes activated GP IIb/IIIa receptors), R-Phycoerythrin (R-PE)-conjugated CD41a (recognizes total GP IIb/IIIa receptors), and CY-Chrome™ conjugated CD62P (recognizes p-selectin). […] The blood-citrate mixture was stimulated with 5 μM ADP for 2 minutes.
The definition of an infarct was CK-MB>3× upper limits normal (ULN) in at least 2 samples and a large infarct was defined as CK-MB>5×ULN in at least 2 samples.10,13 Bleeding was quantified according to the TIMI criteria.16 In brief, major bleeding was defined as clinically overt bleeding accompanied by a fall in hemoglobin of […] or a fall in hematocrit of 9 to <15%.

[4] = tested on: platelets (ADP-induced aggregation); conditions: cited from earlier work
p-selectin = conditions: stimulated; 18-24 hours post-stenting; 300 mg clopidogrel alone
Description: The surface expression of platelet receptors was determined by whole blood flow cytometry using three-color analysis method (Immunocytometry Systems, Cytometry Source Book, Becton Dickinson) with the following monoclonal antibodies: FITCconjugated PAC-1. (recognizes activated GP IIb/IIIa receptors), R-Phycoerythrin (R-PE)-conjugated CD41a (recognizes total GP IIb/IIIa receptors), and CY-Chrome™ conjugated CD62P (recognizes p-selectin). All three antibodies were purchased from BD Biosciences, San Diego, Calif. The blood-citrate mixture was stimulated with 5 μM ADP for 2 minutes. Saturating concentrations of respective antibodies were then added and the tubes were incubated at room temperature for 20 minutes in the dark. […] The labeled samples were analyzed by a Becton Dickinson FACScan flow cytometer set up to measure fluorescence light scatter. The instrument was calibrated with fluorescence beads for the three-color flow cytometer setup (CaliBRITE™3, BD Biosciences). […] The data were collected in list mode and then analyzed using CELL Quest Software (BD BioSciences). P-selectin was expressed as percent positive cells (i.e. the ratio of CD62P (CY-Chrome™) verses CD41a (R-PE) positive cells) as previously described. Activated GP IIb/IIIa was expressed as log mean fluorescence intensity.

[5] = tested on: platelets (ADP-induced aggregation); assay: ADP-induced platelet aggregation by light transmittance aggregometry after coronary stenting (Example 2); type: in vivo, patients
Description: Patients were randomly assigned to one of four treatment regimens by a computer generated assignment that was chosen from a sealed envelope by the study personnel: […] […] Unfractionated heparin was administered according to the ESPRIT dosing regimen (60 U/kg) as a bolus to all patients in the catheterization laboratory immediately prior to stenting. […] The blood-citrate tubes were centrifuged at 120 g for 5 minutes to recover platelet rich plasma (PRP) and further centrifuged at 850 g for 10 minutes to recover platelet poor plasma (PPP). The platelet count was determined in the PRP sample and adjusted to 3.0×10^8/ml with homologous platelet poor plasma. The PRP and PPP were stored at room temperature to be used within two hours. Platelet aggregation was assessed as described previously. […] Aggregation was expressed as the maximum percent change in light transmittance from baseline, using PPP as a reference.

[6] = Group A, 300 mg clopidogrel; hematoma
Description: Relative platelet inhibition was defined for purposes of this study as follows: (baseline aggregation minus posttreatment aggregation)/baseline aggregation×100%.14 Mean platelet reactivity was calculated as the average platelet aggregation recorded at 3, 8 and 18-24 hours poststenting. […] The definition of an infarct was CK-MB>3× upper limits normal (ULN) in at least 2 samples and a large infarct was defined as CK-MB>5×ULN in at least 2 samples.10,13 Bleeding was quantified according to the TIMI criteria.16 In brief, major bleeding was defined as clinically overt bleeding accompanied by a fall in hemoglobin of 3.0-5.0 g/dl or a fall in hematocrit of 9 to <15%. Major bleeding occurred when the hemoglobin decreased >5 g/dl or the hematocrit ≧15%.

[7] = tested on: platelets (ADP-induced aggregation); conditions: resistance = >75th percentile of group without SAT, 75 mg maintenance dose
Description: Cases of stent thrombosis (n=30) were identified by searching the medical records of patients who underwent coronary stenting in the last 1.5 years at the Sinai Hospital of Baltimore and Union Memorial Hospital, Baltimore, Md. […] Stent thrombosis was defined by the sudden onset of coronary artery occlusion in a stented vessel resulting in hospitalization and judged by the treating interventionalist as due to thrombosis. Platelet reactivity in patients with stent thrombosis (SAT) was compared to a group of patients without SAT. In patients without SAT, platelet studies were performed 5-14 days post-procedure and these patients were enrolled consecutively (n=100). […]
Platelet aggregation was determined by conventional light transmittance aggregometry in response to 5 and 20 μM ADP (adenosine diphosphate); and 1.0 mM arachidonic acid using standard methods as previously described. […] The platelet count was determined in the PRPR sample and adjusted to 2-3×10^8/ml with homologous PPP. Platelets in PRP were stimulated with a final concentration of 5 and 20 μM ADP (Chronolog, Haverton, Pa.), and percent aggregation was assessed as previously described using a Chronolog Lumi aggregometer (Model 490A) with the Aggro-Link software package (Gurbel et al. J Am Coll Cardiol 1998 89:783). […]

[8] = tested on: myocardial necrosis markers (troponin I, CKMB, myoglobin); assay: Myocardial necrosis markers and infarction after elective stenting (Example 2); type: in vivo, patients; conditions: for criteria met for a myocardial infarction: CK-MB>3× ULN in at least 2 samples; for large infarcts: CK-MB>5×ULN in at least 2 samples
Description: Patients were randomly assigned to one of four treatment regimens by a computer generated assignment that was chosen from a sealed envelope by the study personnel: […] […] Unfractionated heparin was administered according to the ESPRIT dosing regimen (60 U/kg) as a bolus to all patients in the catheterization laboratory immediately prior to stenting. Cardiac markers were measured at the same times as the platelet assays. The peak levels of troponin I, creatinine kinase MB (CKMB), and myoglobin were determined using the Triage® Cardiac Panel with a Triage® Meter (Biosite Inc., San Diego, Calif.). This method is based on a fluorescence immunoassay for the quantitative determination of these cardiac markers.

## CC(=O)Oc1ccccc1C(=O)O [aspirin]
[1]
  patients meeting the criteria for aspirin resistance: 5.5%
[2]
  patients meeting the criteria for aspirin resistance: 1.5%

## COC(=O)[C@H](c1ccccc1Cl)N1CCc2sccc2C1 [clopidogrel]
[3]; 300 mg clopidogrel loading dose (Groups A, C)
  inhibition of stimulated expression of active GP IIb/IIIa: 50±20%
[3]; 600 mg clopidogrel loading dose (Groups B, D)
  inhibition of stimulated expression of active GP IIb/IIIa: 63±7%
[4]; 300 mg loading dose, 5 and 20 μM ADP, 24 hours after administration
  inhibition of baseline aggregation: < 40%
p-selectin
  effect in p-selectin expression: least effect
[5]; 5 μM ADP, 300 mg clopidogrel loading dose
  time of peak inhibitory effect: 18 to 24 h
[5]; 5 μM ADP, 600 mg clopidogrel loading dose
  time of peak inhibitory effect: 8 h
[5]; 5 μM ADP, 600 mg loading dose, no eptifibatide, first 24 hours after stenting
  platelet inhibition, 600 mg vs 300 mg loading dose: greater platelet inhibition
[5]; 5 μM ADP, average of 3, 8 and 18-24 hours post-stenting, 300 mg clopidogrel alone
  mean platelet reactivity vs 600 mg clopidogrel alone: higher mean platelet reactivity
[5]; 20 μM ADP, 300 mg clopidogrel loading dose
  time of peak inhibitory effect: 8 h
[5]; 20 μM ADP, 600 mg clopidogrel loading dose
  time of peak inhibitory effect: 8 h
[6]
  minor bleeding: one
[7]; 5 μM ADP-induced aggregation
  estimated incidence of clopidogrel resistance: 65%
[7]; 20 μM ADP-induced aggregation
  estimated incidence of clopidogrel resistance: 60%
[8]; Group A, 300 mg clopidogrel
  ST-elevation myocardial infarction in-hospital following a subacute thrombosis: one
  criteria met for a myocardial infarction: 3 patients
  large infarcts: 2
[8]; Group B, 600 mg clopidogrel
  criteria met for a myocardial infarction: 1 patients
  large infarcts: 1

## N=C(N)NCCCC[C@@H]1NC(=O)CCSSC[C@@H](C(N)=O)NC(=O)[C@@H]2CCCN2C(=O)[C@H](Cc2c[nH]c3ccccc23)NC(=O)[C@H](CC(=O)O)NC(=O)CNC1=O [eptifibatide] ([Mpa][hArg]GDWPC-NH2; disulfide 1-7)
[4]; other studies
  inhibition (of aggregation): > 80%
[5]; 5 μM ADP, average of 3, 8 and 18-24 hours post-stenting, eptifibatide use
  mean platelet reactivity: lowest mean platelet reactivity
[8]; either group that received eptifibatide (Groups C, D)
  large infarcts: no large infarcts
[8]; groups treated with eptifibatide vs clopidogrel alone
  CKMB release (>1-3×ULN), overall: lowest

— patent US8440420B2, “Assessment of cardiac health and thrombotic risk in a patient” (priority 2005, dated 2013)
